This is an account of results in ChEMBL document CHEMBL1138083, “Antidyslipidemic activity of furano-flavonoids isolated from Indigofera tinctoria” (2006).

Type in all cases: functional, Mesocricetus auratus
Experiment [1] relates to Syrian golden hamster. Put plainly: Decrease in total cholesterol level in hamster at 50 mg/kg, po. More on the design: scale not given: the % may be the effect or the level left.
Experiment [2] deals with Syrian golden hamster. The experiment is described as follows: Increase in HDL cholesterol to total cholesterol level in hamster at 50 mg/kg, po.
In experiment [3] the test system is Syrian golden hamster. The experiment is described as follows: Decrease in glycerol level in hamster at 50 mg/kg, po. More on the design: scale not given: the % may be the effect or the level left.
Experiment [4] deals with Syrian golden hamster. Put plainly: Decrease in plasma triglyceride level in hamster at 50 mg/kg, po. More on the design: scale not given: the % may be the effect or the level left.
For experiment [5], the system named is Syrian golden hamster. The experiment is described as follows: Decrease in free fatty acid in hamster at 50 mg/kg, po. More on the design: scale not given: the % may be the effect or the level left.
Experiment [6] deals with Syrian golden hamster. Put plainly: Increase in HDL cholesterol level in hamster at 50 mg/kg, po.
Experiment [7] deals with Syrian golden hamster. The experiment is described as follows: Increase in free fatty acid in hamster at 50 mg/kg, po.

Active and inactive are the calls of the source. No cut-off for these calls is given here.

As to `CC(=O)O[C@H]1[C@@H]2c3c(ccc4c(=O)cc(-c5ccccc5)oc34)O[C@@H]2OC1(C)C`, the Activity in experiment [1] came out at 19%; in experiment [2], 36%; in experiment [3], 13%; in experiment [4] it was 60%; in experiment [5], 25%; in experiment [6] it was 8%.
Take `CC(=O)OC1C(C)(C)OC(=O)C12COc1ccc3c(=O)cc(-c4ccccc4)oc3c12` (stereo not drawn): the result in experiment [1] (Mesocricetus auratus) was inactive. In addition, the Activity in experiment [2] amounted to 26%; in experiment [3], 6%; in experiment [4] it was 41%; in experiment [7], 7%; in experiment [6] it was 28%.
With `CC(=O)O[C@@H]1[C@@H]2c3c(ccc4c(=O)cc(-c5ccccc5)oc34)O[C@@H]2OC1(C)C`, the Activity came out at 19% in experiment [1]; 36% in experiment [2]; 13% in experiment [3]; 60% in experiment [4]; 25% in experiment [5]; 8% in experiment [6].
